Columns and labels:
Type in all cases: in vivo, BALB/c mice
[1] = Growth and feed intake of OVA-sensitized mice
Procedure: (§1) Inbred female BALB/c mice (4 weeks old) were purchased from the Laboratory Animal Center, National Taiwan University and housed in a room with constant temperature of 23±2° C. The animal room was kept on a 12-h light and 12-h dark cycle. The mice were housed and kept on free diet and water to acclimatize before feeding the experimental diet. Diet ingestions are recorded every 3˜4 days, and mice body weight were recorded every week. When mice were in 8 week old, the mice were sensitized and challenged to induce allergic reaction at week 8, 10 and 12 by an intraperitonal injection (i.p.) of antigen containing ovalbumin antigen and adjuvant (Imject® Alum). Blood samples were collected on two days before injection and on two weeks after last injection for analysis of OVA-specific antibodies. Mice were divided in five groups based on OVA-specific IgE antibody and body weight, namely OVA-oil group (the control group), OVA-BGP group (feed containing 5% of freeze dried bitter melon powder), OVA-CLN group (tube feeding containing 35 mg CLN), OVA-Pred (prednisolone, the positive control group), and PBS-oil (the non-sensitized group), respectively. Mice diet was based on AIN-76 formulation (feed composition referred to J. Nutri. 107: 1340-1384, 1977). Administration of steroid prednisolone by tube feeding started 4 days before AHR induction and last to the day sacrificed. After 4 days of feeding, mice were challenged with 5% aerosol of OVA solution, while the PBS-oil group was administered with aerosol PBS. Change of mice airway resistance was measured after 13 days of feeding, and mice were sacrificed on day 16.
BALB/c mice were sensitized every other week for three times. Two weeks before the last sensitization mice were divided into five groups according to OVA-specific IgE and body weight, then different experimental diet were provided for 16 days. […] In the aspect of daily ingestion, no difference was observed among these mice groups.

[2] = Organ weight and relative organ weight of OVA-sensitized mice
Procedure: as §1
After 16 days of feeding, the absolute weight of heart of OVA-BGP treated mice was less than the OVA-oil treated mice. […] There was no difference between the OVA-CLN group and control group. […] The absolute weight and relative weight of lung of PBS-oil mice group were lower than sensitized mice groups.

[3] = system: OVA-sensitized mice; assay: Airway hyperresponsiveness (Penh, methacholine challenge, whole-body plethysmograph); conditions: Mch challenge 12.5 mg/ml or higher; after 13 days feeding; FIG. 2
Procedure: Inbred female BALB/c mice (4 weeks old) were purchased from the Laboratory Animal Center, National Taiwan University and housed in a room with constant temperature of 23±2° C. The animal room was kept on a 12-h light and 12-h dark cycle. The mice were housed and kept on free diet and water to acclimatize before feeding the experimental diet. Diet ingestions are recorded every 3˜4 days, and mice body weight were recorded every week. When mice were in 8 week old, the mice were sensitized and challenged to induce allergic reaction at week 8, 10 and 12 by an intraperitonal injection (i.p.) of antigen containing ovalbumin antigen and adjuvant (Imject® Alum). […] Change of mice airway resistance was measured after 13 days of feeding, and mice were sacrificed on day 16. […]
After an inhaled antigen challenge, airway resistance of the mice were tested the following day using Buxco system (Biosystem XA, Buxco Electronics Inc. Sharon, Conn., USA), in which the differential pressure transducer (Buxco) and preamplifier (MAX II, Buxco) were used to collect change information of mice respiratory and to calculate lung Penh value (Penh, enhanced pause). […] After excess aerosol was evacuated, an average Penh value per minute was recorded. […] The same challenge process was performed at each concentration, and an average Penh value per minute was recorded after 3 mins after each challenge. […]

[4] = system: OVA-sensitized mice; assay: Cytokine, eotaxin and PGE2 level in BALF (ELISA); conditions: day 16; mean ± SD
Procedure: as §1
After mice were sacrificed, fur and skin in the mice neck were incised and muscle surrounding the trachea was tear open to expose the trachea. A small hole was made on the trachea near the head with scissors to intubate tracheal tubing. After intubation, their lungs and airways were lavaged with […] of sterile PBS. Two ml of bronchoalveolar lavage fluid (BALF) was centrifuged at 1500 rpm for 7 mins at 4° C. The supernatant (BALF) was collected and stored at −80° C. for cytokine concentration determination. The cell pellet was washed with HBSS buffer twice and re-suspended in 10% FBS/RPMI medium. Total leukocytes were counted with a hemocytometer using trypan blue dye exclusion method. After the cell concentration was adjusted to 5×10^5 cell/ml, aliquots of 100 μl total cells were centrifuged with cytospin at 500 rpm for 2 mins and then stained with Liu A for 30 seconds. After excess stain was washed off and air dried, the cells were stained with Liu B for 5 seconds. Slides were air-dried and sealed with Arabic gum. […] Two hundreds of leukocytes were counted on each slide, which includes four different cells, eosinophil, neutrophil, lymphocyte and monocyte.
BD Pharmingen System was provided as an example. Cytokine concentration was determined by ABC (avidin-biotin conjugated system) ELISA method. Primary antobiody was added to the 96-microwell plate wells and incubated at 4° C. overnight. After incubation, plates were washed four times with PBST buffer. To block non-specific binding, block buffer were added to each well and the plates were incubated at room temperature for 1 h. After incubation, plates were washed five times with ELISA wash buffer. Appropriately diluted samples or standard solution were then added to the 96-microwell plate wells and the plates were incubated at room temperature for 2˜3 h. After incubation, plates were washed with buffer six times then secondary antibody for detection was added to each well. Plates were incubated for another 1 h. After incubation, plates were washed seven times with ELISA wash buffer. Streptavidin-HRP (horseradish peroxidase) was added to each well and the reaction was allowed to react for 30 mins. After reaction, the plates were washed with ELISA buffer eight times and then HRP-substrate solution was added to the 96-microwell plate wells. […]

[5] = system: OVA-sensitized mice; assay: Leukocyte numbers in BALF; conditions: FIG. 3A-3B
Procedure: Inbred female BALB/c mice (4 weeks old) were purchased from the Laboratory Animal Center, National Taiwan University and housed in a room with constant temperature of 23±2° C. The animal room was kept on a 12-h light and 12-h dark cycle. The mice were housed and kept on free diet and water to acclimatize before feeding the experimental diet. Diet ingestions are recorded every 3˜4 days, and mice body weight were recorded every week. When mice were in 8 week old, the mice were sensitized and challenged to induce allergic reaction at week 8, 10 and 12 by an intraperitonal injection (i.p.) of antigen containing ovalbumin antigen and adjuvant (Imject® Alum). Blood samples were collected on two days before injection and on two weeks after last injection for analysis of OVA-specific antibodies. […] Change of mice airway resistance was measured after 13 days of feeding, and mice were sacrificed on day 16.
After mice were sacrificed, fur and skin in the mice neck were incised and muscle surrounding the trachea was tear open to expose the trachea. […] Total leukocytes were counted with a hemocytometer using trypan blue dye exclusion method. […] Two hundreds of leukocytes were counted on each slide, which includes four different cells, eosinophil, neutrophil, lymphocyte and monocyte.

[6] = system: splenocytes of OVA-sensitized mice; assay: Cytokine secretion by OVA-specific stimulated splenocytes ex vivo; conditions: mean ± SD
Procedure: as §1
Mice were sacrificed and their spleens were aseptically removed and suspended in 3 cm incubation dish containing 3 ml TCM/RPMI solution. Spleen tissue was minced with rear end of syringe and the upper layer cell suspension was collected and placed in 15 ml centrifuge tube. Another 3 ml HBSS buffer was added to wash the dish and residual cells were collected. Cell suspensions were centrifuged at 1500 rpm for 10 mins Supernatant was discard and the precipitated cells were re-suspend in ACK lysing buffer. After 1 minute, HBSS buffer was added to the suspension and then centrifuged at 1500 rpm for 10 mins Cell pellet was washed with HBSS buffer for 3 times. 2 ml of TCM/RPMI medium was added to re-suspend the cells. Cell number was counted and adjusted to 1×10^7 cell/ml. 500 μl of the cell suspension was added to 48 well plates. […] After 48 hours incubation, supernatants were collected and stored at −80° C.
BD Pharmingen System was provided as an example. Cytokine concentration was determined by ABC (avidin-biotin conjugated system) ELISA method. Primary antobiody was added to the 96-microwell plate wells and incubated at 4° C. overnight. After incubation, plates were washed four times with PBST buffer. To block non-specific binding, block buffer were added to each well and the plates were incubated at room temperature for 1 h. After incubation, plates were washed five times with ELISA wash buffer. Appropriately diluted samples or standard solution were then added to the 96-microwell plate wells and the plates were incubated at room temperature for 2˜3 h. After incubation, plates were washed with buffer six times then secondary antibody for detection was added to each well. Plates were incubated for another 1 h. After incubation, plates were washed seven times with ELISA wash buffer. […] The plates were measured the absorbance at 405 nm by ELISA reader.

[7] = after 16 days feeding, mean ± SD

Compound: CCCC/C=C/C=C/C=C\CCCCCCCC(=O)O [OVA-CLN, Conjugated linolenic acid]
- Initial Body weight ([1]; 14 week-old, before experimental feeding, mean ± SD): 22.7 ± 1.30 g
- Final Body Weight ([1]; 16 week-old, after 16 days feeding, mean ± SD): 22.0 ± 1.52 g
- Effect on mice growth (body weight) ([1]; 16 days feeding, in words): did not affect mice growth
- Feed Intake ([1]; mean ± SD): 2.99 ± 0.31 g/day
- Heart absolute weight [2, 7]: 0.12 ± 0.02 g
- Heart relative weight [2, 7]: 0.56 ± 0.06%
- Kidney absolute weight [2, 7]: 0.29 ± 0.01 g
- Kidney relative weight [2, 7]: 1.30 ± 0.05%
- Liver absolute weight [2, 7]: 1.28 ± 0.15 g
- Liver relative weight [2, 7]: 5.80 ± 0.38%
- Lung absolute weight [2, 7]: 0.48 ± 0.08 g
- Lung relative weight [2, 7]: 2.21 ± 0.46%
- Spleen absolute weight [2, 7]: 0.080 ± 0.026 g
- Spleen relative weight [2, 7]: 0.37 ± 0.12%
- Airway hyperresponsiveness (Penh) vs OVA-oil group [3]: alleviation of AHR
- Eotaxin in BALF [4]: 27.3 ± 8.5 pg/mL
- IL-1β in BALF [4]: 21.0 ± 9.5 pg/mL
- IL-4 in BALF [4]: 39.1 ± 33.9 pg/mL
- IL-5 in BALF [4]: 326 ± 183 pg/mL
- IL-6 in BALF [4]: 12.2 ± 27.8 pg/mL
- IL-13 in BALF [4]: 254 ± 75 pg/mL
- PGE2 in BALF [4]: 17.2 ± 16.1 ng/mL
- TNF-α in BALF [4]: 64.5 ± 29.3 pg/mL
- Eosinophils in BALF vs OVA-oil group [5]: less eosinophils infiltration

Compound: C[C@]12C=CC(=O)C=C1CC[C@@H]1[C@@H]2[C@@H](O)C[C@@]2(C)[C@H]1CC[C@]2(O)C(=O)CO [OVA-Pred, prednisolone]
- Relative weight of liver vs OVA-oil group ([2]; in words): significant lower
- Airway hyperresponsiveness (Penh) vs OVA-oil group [3]: alleviation of AHR
- Total leukocyte number in BALF vs OVA-oil group [5]: less than those in the OVA-oil group
- IFN-γ secretion by splenocytes [6]: 110 ± 50 pg/mL
- IL-2 secretion by splenocytes [6]: 66.9 ± 20.9 pg/mL
- IL-4 secretion by splenocytes [6]: 33.4 ± 14.5 pg/mL
- IL-5 secretion by splenocytes [6]: 2.12 ± 1.85 ng/mL
- IL-13 secretion by splenocytes [6]: 322 ± 118 pg/mL

Source: patent publication US20130005812A1, “METHOD FOR ALLEVIATING ALLERGIC ASTHMA AND ALLERGIC RESPONSE BY USING BITTER MELON COMPOSITION” (NATIONAL TAIWAN UNIVERSITY, priority 2011, published 2013)
